According to paper PMC3907537, “Evaluation of the Endothelin Receptor Antagonists Ambrisentan, Bosentan, Macitentan, and Sitaxsentan as Hepatobiliary Transporter Inhibitors and Substrates in Sandwich-Cultured Human Hepatocytes” (PLoS ONE, 2014):
“And” between values parts separate entries of the source, which are not always exact repeats. Identical values can stand only once. Like-named read-outs stand apart in the source and are kept apart here. Blank lines part the entries; values can stand above or below the compound they belong to.

Legend:
OATP1B3 = target: T1, OATP1B3 (Homo sapiens, UniProt Q9NPD5); details: cited from earlier work
T1 construct: host or cells: CHO
T1 sequence (Q9NPD5 1-702): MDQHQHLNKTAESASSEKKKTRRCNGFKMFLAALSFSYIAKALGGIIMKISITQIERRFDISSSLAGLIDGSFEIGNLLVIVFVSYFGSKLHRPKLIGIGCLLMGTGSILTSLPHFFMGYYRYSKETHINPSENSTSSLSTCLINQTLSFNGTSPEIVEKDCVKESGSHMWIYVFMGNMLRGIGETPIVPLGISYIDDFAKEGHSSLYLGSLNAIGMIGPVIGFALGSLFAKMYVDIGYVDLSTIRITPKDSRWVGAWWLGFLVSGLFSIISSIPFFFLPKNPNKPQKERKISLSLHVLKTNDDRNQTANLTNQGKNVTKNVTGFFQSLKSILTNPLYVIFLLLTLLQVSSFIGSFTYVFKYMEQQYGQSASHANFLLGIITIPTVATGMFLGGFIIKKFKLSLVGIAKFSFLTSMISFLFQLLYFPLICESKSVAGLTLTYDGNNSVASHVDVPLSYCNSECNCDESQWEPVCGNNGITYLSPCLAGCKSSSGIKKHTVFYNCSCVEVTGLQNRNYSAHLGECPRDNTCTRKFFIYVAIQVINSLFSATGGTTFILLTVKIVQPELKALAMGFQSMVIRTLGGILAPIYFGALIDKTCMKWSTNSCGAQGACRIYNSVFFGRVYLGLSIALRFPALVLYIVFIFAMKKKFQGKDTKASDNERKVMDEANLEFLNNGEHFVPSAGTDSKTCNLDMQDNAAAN

fresh human hepatocytes = assay: Cellular uptake of bosentan and macitentan into fresh human hepatocytes with or without transport inhibitors; type: in vitro ADME; details: 300 nM
Experimental: The cellular uptake of bosentan and macitentan was determined in fresh human hepatocytes purchased from Celsis/IVT (Baltimore, MD) or Life Technologies (Foster City, CA). Cells were pre-incubated in Krebs-Henseleit Buffer containing 5% bovine serum albumin for 30 min at 37°C prior to assay. Cells were then co-incubated in the presence and absence of an inhibitor cocktail containing 40 µM rifampicin and 5 µM of cyclosporin A for 15 min. Test compounds bosentan and macitentan were diluted to 3 fold of final target concentration in the same assay buffer and equilibrated at 37°C for 30 min. The uptake assay was initiated by adding 50 µL of test compound solution to the 48-well plate containing 100 µL cell suspension, mixed and incubated at 37°C for 30, 60 and 90 sec. Final cell density was 2×10^6 cells/mL with a final test compound concentration of 300 nM. The reaction mixture was overlaid onto pre-prepared microcentrifuge tubes containing 100 µL of 2 N NaOH (bottom layer) and 100 µL of filtration oil (middle layer; 74.5∶25.5 silicon oil:mineral oil mix) followed by centrifugation at 13,000 g for 30 sec. The samples were allowed to sit at room temperature for 2 h and then frozen at −80°C. The microcentrifuge tubes were then cut and the bottom layer containing the cell lysate collected. HCl solution was added to neutralize the solution. Samples were extracted with organic solvents for analysis by liquid chromatography coupled to tandem mass spectrometry (LC/MS/MS).

Pgp [1] = target: T2, Pgp (Homo sapiens, UniProt P08183); assay: Pgp inhibition, Calcein AM in MDCKII cells; type: cell-based; details: mean ± SD of 3 independent studies in duplicate, tested 0.14–100 µM
T2 construct: host or cells: MDCKII
Source text: Chinese Hamster Ovary (CHO) cells were obtained from Professor B. Stieger’s laboratory at University of Zurich, Zurich, Switzerland. Madin-Darby Canine Kidney strain II (MDCKII) cells were obtained from Nederlands Kanker Instituut (NKI), Amsterdam, Netherlands. NTCP-CHO cells, BSEP and MRP2 membrane vesicles were developed and validated at Solvo Biotechnology, Budaors, Hungary.
MDCKII cells were maintained in DMEM with sodium pyruvate, Glutmax, 1% Penicillin/Streptomycin and 10% FBS in an incubator set at 37°C, 90% humidity and 5% CO2. MDCKII cells were seeded in 96-well black cell culture plates with clear bottoms at a density of 5×10^4 cells/well for Pgp and 2×10^4 cells/well for BCRP and grown to confluence. For the Pgp assay, test compounds were serially diluted in DMSO and then added into in cell culture medium (without FBS) containing 10 µM Calcein AM and incubated for 1 h. Following the removal of media containing Calcein AM and test compound, cells were washed five times with […] phosphate buffered saline containing magnesium and calcium (PBS). Wells were analyzed for Calcein AM fluorescence at an excitation of 494 nm and an emission of 517 nm. For the BCRP assay, test compounds were serially diluted DMSO and then spiked in cell culture medium (without FBS) containing 1 µM pheophorbide a (PhA) and incubated for 18 hours with MDCKII-ABCG2 cells. Following the removal of media containing PhA and test compound, cells were then washed five times with PBS. Wells were analyzed for PhA fluorescence at an excitation of 415 nm and an emission of 675 nm.
All assays were performed in duplicate. IC50 was defined as the test article concentration needed to inhibit the maximal transporter specific accumulation by 50%. IC50 values were calculated using non-linear fitting of % inhibition versus concentration to a sigmoidal curve with a variable Hill Coefficient using GraphPad Prism 5 (GraphPad Software Inc., San Diego, CA).

canine BCRP = tested on: canine BCRP; design: method as in PMID 23353592; details: cited from earlier work
murine Pgp = tested on: murine Pgp; design: method as in PMID 23353592; details: cited from earlier work
[2] = design: method as in PMID 22189899; details: plasma pharmacokinetics in patients ref 36; cited from earlier work
Pgp [3] = target: T2, Pgp; design: method as in earlier work; details: data previously reported, similar conditions ref 35; cited from earlier work
BSEP [4] = target: T3, BSEP (Homo sapiens, UniProt O95342); design: method as in earlier work; details: data previously reported, same assay conditions ref 35; cited from earlier work
T3 construct: purchased Solvo Biotechnology, Budaors, Hungary; host or cells: Sf9 insect cells (membrane vesicles)

MRP2 = target: T4, MRP2 (Homo sapiens, UniProt Q92887); design: method as in earlier work; details: data previously reported ref 35; cited from earlier work
T4 construct: purchased Solvo Biotechnology, Budaors, Hungary; host or cells: Sf9 insect cells (membrane vesicles)

[5] = cited from earlier work
BSEP [6] = tested on: BSEP; design: method as in PMID 11309550, PMID 20829430, PMID 17061295, PMID 23956101; details: read-out: BSEP inhibition values previously reported (IC50); cited from earlier work

T2 sequence (P08183 whole entry): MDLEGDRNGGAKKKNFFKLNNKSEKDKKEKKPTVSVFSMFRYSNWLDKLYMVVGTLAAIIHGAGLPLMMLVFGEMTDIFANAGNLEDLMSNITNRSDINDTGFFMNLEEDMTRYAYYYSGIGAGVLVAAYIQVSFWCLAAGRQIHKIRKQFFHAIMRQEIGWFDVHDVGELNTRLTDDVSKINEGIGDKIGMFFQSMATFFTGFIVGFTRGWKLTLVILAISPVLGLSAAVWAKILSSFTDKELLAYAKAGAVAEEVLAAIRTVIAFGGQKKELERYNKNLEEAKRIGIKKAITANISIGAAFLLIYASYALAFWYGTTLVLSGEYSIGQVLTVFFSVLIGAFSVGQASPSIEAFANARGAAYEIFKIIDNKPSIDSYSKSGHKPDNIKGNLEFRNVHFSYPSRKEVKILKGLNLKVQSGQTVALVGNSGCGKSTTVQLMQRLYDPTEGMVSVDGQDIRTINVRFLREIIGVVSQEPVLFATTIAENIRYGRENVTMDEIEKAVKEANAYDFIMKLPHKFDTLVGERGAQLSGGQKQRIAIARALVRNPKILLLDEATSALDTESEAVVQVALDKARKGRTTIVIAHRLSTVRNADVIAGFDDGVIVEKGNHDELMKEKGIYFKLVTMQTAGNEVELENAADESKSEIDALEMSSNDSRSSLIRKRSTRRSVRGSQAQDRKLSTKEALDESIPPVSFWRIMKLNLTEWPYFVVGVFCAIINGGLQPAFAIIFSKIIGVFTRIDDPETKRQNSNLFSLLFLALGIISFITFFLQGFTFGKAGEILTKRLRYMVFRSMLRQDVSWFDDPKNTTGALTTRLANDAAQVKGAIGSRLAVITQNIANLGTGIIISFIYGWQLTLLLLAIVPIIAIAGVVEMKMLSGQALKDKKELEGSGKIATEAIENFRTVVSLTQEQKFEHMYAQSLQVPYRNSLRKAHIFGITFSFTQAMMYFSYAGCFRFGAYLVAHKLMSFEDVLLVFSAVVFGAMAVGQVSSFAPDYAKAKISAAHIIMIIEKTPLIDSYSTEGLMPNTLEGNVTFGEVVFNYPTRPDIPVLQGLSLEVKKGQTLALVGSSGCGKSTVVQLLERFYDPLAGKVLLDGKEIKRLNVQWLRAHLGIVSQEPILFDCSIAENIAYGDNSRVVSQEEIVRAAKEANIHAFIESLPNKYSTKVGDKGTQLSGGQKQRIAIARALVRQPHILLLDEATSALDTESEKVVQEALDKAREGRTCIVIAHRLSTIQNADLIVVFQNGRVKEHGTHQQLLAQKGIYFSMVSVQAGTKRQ
T3 sequence (O95342 whole entry): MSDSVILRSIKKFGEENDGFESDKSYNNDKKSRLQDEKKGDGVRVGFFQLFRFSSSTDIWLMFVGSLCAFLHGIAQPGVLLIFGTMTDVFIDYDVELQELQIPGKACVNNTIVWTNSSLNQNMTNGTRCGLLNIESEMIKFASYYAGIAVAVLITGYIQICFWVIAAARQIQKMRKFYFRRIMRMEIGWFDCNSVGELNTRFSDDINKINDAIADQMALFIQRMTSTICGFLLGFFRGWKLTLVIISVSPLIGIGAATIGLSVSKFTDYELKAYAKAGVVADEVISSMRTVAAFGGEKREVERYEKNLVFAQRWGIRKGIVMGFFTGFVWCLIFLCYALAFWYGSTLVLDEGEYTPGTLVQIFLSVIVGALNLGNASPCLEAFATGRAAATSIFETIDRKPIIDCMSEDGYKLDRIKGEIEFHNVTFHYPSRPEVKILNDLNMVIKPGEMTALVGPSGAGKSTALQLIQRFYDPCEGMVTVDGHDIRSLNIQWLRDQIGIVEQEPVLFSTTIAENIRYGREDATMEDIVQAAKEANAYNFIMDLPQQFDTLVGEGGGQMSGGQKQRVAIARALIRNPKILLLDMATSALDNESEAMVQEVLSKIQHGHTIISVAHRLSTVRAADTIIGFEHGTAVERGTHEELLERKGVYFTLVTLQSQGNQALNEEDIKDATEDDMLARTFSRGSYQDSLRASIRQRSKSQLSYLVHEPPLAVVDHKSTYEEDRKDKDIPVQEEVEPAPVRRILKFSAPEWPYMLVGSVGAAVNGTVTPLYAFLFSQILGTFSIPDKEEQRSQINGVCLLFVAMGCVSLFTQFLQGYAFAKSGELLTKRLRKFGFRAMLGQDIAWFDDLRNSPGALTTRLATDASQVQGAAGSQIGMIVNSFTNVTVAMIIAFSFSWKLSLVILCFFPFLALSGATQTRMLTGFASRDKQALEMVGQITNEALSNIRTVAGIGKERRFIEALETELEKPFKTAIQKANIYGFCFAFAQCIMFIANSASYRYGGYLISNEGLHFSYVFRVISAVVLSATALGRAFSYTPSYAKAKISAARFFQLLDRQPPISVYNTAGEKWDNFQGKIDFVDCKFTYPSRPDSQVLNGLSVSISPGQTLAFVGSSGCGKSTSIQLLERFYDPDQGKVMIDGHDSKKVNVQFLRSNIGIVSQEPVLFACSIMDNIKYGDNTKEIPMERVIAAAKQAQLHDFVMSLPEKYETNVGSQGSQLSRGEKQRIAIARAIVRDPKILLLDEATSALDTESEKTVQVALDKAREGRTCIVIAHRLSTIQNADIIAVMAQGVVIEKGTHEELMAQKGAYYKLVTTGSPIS
T4 sequence (Q92887 whole entry): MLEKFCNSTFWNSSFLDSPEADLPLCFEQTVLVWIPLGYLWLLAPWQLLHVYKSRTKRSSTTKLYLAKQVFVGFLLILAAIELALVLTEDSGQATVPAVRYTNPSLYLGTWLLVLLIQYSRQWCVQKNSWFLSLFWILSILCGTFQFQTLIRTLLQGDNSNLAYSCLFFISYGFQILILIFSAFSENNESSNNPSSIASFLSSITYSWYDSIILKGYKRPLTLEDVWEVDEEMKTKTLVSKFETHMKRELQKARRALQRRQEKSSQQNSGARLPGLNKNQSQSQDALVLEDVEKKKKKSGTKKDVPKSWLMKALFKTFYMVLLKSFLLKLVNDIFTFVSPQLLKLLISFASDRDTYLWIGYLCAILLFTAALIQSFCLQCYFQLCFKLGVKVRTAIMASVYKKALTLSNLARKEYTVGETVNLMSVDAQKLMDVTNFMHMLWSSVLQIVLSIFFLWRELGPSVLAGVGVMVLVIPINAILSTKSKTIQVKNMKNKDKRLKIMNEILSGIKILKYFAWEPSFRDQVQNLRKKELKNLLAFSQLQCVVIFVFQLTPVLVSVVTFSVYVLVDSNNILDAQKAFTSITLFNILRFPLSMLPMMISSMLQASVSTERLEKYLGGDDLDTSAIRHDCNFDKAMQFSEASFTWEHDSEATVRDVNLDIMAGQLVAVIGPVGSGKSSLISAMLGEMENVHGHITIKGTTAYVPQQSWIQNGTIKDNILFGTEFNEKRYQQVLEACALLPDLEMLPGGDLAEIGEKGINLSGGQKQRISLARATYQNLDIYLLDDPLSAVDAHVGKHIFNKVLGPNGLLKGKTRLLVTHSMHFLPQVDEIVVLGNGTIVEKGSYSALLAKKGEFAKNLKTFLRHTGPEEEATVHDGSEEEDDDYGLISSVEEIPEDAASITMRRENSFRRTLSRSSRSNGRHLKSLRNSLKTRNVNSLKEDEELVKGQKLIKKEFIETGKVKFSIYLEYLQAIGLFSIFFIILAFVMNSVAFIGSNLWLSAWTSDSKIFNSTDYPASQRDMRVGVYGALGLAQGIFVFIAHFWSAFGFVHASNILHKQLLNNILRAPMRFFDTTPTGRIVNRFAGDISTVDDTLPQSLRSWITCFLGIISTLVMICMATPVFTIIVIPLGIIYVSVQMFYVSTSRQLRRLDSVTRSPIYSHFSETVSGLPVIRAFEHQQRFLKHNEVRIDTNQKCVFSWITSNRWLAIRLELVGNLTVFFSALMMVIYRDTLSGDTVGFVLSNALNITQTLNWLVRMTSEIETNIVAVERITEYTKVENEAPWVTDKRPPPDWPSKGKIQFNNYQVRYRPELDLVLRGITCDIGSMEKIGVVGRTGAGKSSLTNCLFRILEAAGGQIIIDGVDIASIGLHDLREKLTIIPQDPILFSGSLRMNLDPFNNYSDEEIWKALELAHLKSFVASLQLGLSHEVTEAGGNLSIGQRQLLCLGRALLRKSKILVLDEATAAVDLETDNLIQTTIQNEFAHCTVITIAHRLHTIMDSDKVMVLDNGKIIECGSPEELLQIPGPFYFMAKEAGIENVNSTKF

cellular uptake relative to that of bosentan (fresh human hepatocytes; human): approximately 7 times | IC50 (Pgp [1]): 64 ± 15 µM
SMILES: CCCNS(=O)(=O)Nc1ncnc(OCCOc2ncc(Br)cn2)c1-c1ccc(Br)cc1 [macitentan]
IC50 (OATP1B3; Bruderer et al. ref 36): 11.8 µM | IC50 (OATP1B3): 10 µM | IC50 (canine BCRP): 13.2 µM and 13 µM | IC50 (murine Pgp): 4.4 µM and 4 µM | increase in macitentan exposure on coadministration with cyclosporin A [2]: 10% | increase in macitentan trough concentration on coadministration with cyclosporin A [2]: 38%

SMILES: Cc1cc2c(cc1CC(=O)c1sccc1S(=O)(=O)Nc1onc(C)c1Cl)OCO2 [sitaxsentan]
IC50 (Pgp [3]): > 100 µM | IC50 (BSEP [4]): 25 µM | IC50 (MRP2): > 100 µM

IC50 (Pgp [1]): > 100 µM
SMILES: COC(c1ccccc1)(c1ccccc1)[C@H](Oc1nc(C)cc(C)n1)C(=O)O [ambrisentan]
patients with serum aminotransferase concentrations >3 times ULN ([5]; ARIES studies, n = 261 ref 11): none | incidence of elevated aminotransferase >3 times ULN ([5]; ARIES-E long-term extension, mean follow-up of 1.4 years ref 12): 1.8%

reduction of cellular uptake in the presence of transport inhibitors (fresh human hepatocytes; 40 µM rifampicin plus 5 µM cyclosporin A, fresh human hepatocytes): 46% | IC50 (Pgp [1]): > 100 µM
SMILES: COc1ccccc1Oc1c(NS(=O)(=O)c2ccc(C(C)(C)C)cc2)nc(-c2ncccn2)nc1OCCO [bosentan]
IC50 (BSEP [6]): 12 to 76.8 µM | cellular uptake in the absence of transport inhibitors (fresh human hepatocytes; fresh primary human hepatocytes, n = 4 donors): 4.6±0.7 pmol/million cells and 4.6 pmol/million cells
